Measurements from US20070275943A1, “Method and Composition for Treatment or Prophylaxis of Amyloidosis Disorders” (Acrux DDS Pty Ltd., priority 2003, published 2007).

Columns and labels:
[1] = molar ratio 1:1 (zinc: Aβ); read-out: KD of high affinity zinc binding; cited from earlier work
[2] = Diffusion across excised human epidermis, flow-through diffusion cells, finite dose; settings: test spray (5% w/v 1,10-phenanthroline + 5% w/v octyl salicylate in 95% ethanol) vs control without enhancer, 24 h, 5 μL/cm^2, p<0.01
Description: The diffusion experiments were performed using excised human epidermis as the model membrane. These experiments were performed over 24 h with stainless steel, flow-through diffusion cells based on those previously described, (Cooper, E. R. J. Pharm. Sci. 1984, 73, 1153-1156.) except that the cell was modified to increase the diffusional area to 1.0 cm^2. The formulations were applied using a finite dose technique (Franz, T. J. Curr. Probl. Dermatol. 1978, 7, 58-68.) to mimic clinical dosing conditions at an applied dose volume of 5 μL/cm^2. A piece of stainless steel wire mesh was placed directly below the skin in the receptor chamber of the diffusion cell to maintain a turbulent flow of receptor solution below the skin. The diffusion cells were maintained at a flow rate of approximately 1.0 ml/cm^2/h by a microcassette peristaltic pump (Watson Marlow 505S, UK). The cells were kept at 32±0.5° C. by a heater bar and the samples are collected into appropriately sized plastic vials on an automated fraction collector (Isco Retriever II, Lincoln, Nebr.) at specified intervals. […]
Samples were analysed for 1,10-phenanthroline directly by RP-HPLC using the following conditions; Column—Waters Symmetry C18 column (3.9×150 mm) with a 5 μm support size; Mobile phase—20% Acetonitrile buffered with 0.01 M KH2PO4, pH=2.80; Flow rate—0.9 mL/min; Absorbance—235 nm; and Injection volume—20 μL.

| increase in the transdermal delivery of 1,10-phenanthroline across the skin [2] [fold] | Compound | Kd [1] [nM] |
| --- | --- | --- |
|  | Aβ: polypeptide, major component of the amyloid deposits in Alzheimer's disease | 107 |
| 1.3 | c1cnc2c(c1)ccc1cccnc12 [1,10-phenanthroline] |  |
